Laboratory results reported in patent US20130224234A1, “TTLL4 PEPTIDES AND VACCINES CONTAINING THE SAME” (Onco Therapy Science, Inc., priority 2010, published 2013).
Entries after “also recorded” stand apart in the source; their conditions may differ.

Tests used:
[1] = test system: peptide-pulsed T2 cells; experiment: In vitro CTL induction, IFN-gamma ELISPOT assay (HLA-A*0201); type: cell-based, human; settings: CTLs induced with peptide from HLA-A*0201 positive donor, peptide-pulsed T2 vs control
Text: Monocyte-derived dendritic cells (DCs) were used as antigen-presenting cells to induce cytotoxic T lymphocyte (CTL) responses against peptides presented on human leukocyte antigen (HLA). DCs were generated in vitro as described elsewhere (Nakahara S et al., Cancer Res 2003, 63(14): 4112-8). Specifically, peripheral blood mononuclear cells isolated from a normal volunteer (HLA-A*0201 positive) by Ficoll-Plaque (Pharmacia) solution were separated by adherence to a plastic tissue culture dish (Becton Dickinson) so as to enrich them as the monocyte fraction. The monocyte-enriched population was cultured in the presence of 1000 U/ml of granulocyte-macrophage colony-stimulating factor (R&D System) and 1000 U/ml of interleukin (IL)-4 (R&D System) in AIM-V Medium (Invitrogen) containing 2% heat-inactivated autologous serum (AS). After 7 days of culture, the cytokine-induced DCs were pulsed with 20 micro-g/ml of each of the synthesized peptides in the presence of 3 micro-g/ml of beta 2-microglobulin for 3 hr at 37 degrees C. in AIM-V Medium. The generated cells appeared to express DC-associated molecules, such as CD80, CD83, CD86 and HLA class II, on their cell surfaces (data not shown). These peptide-pulsed DCs were then inactivated by X-irradiation (20 Gy) and mixing at a 1:20 ratio with autologous CD8+ T cells, obtained by positive selection with CD8 Positive Isolation Kit (Dynal). These cultures were set up in 48-well plates (Corning); each well contained 1.5×10^4 peptide-pulsed DCs, 3×10^5 CD8+ T cells and 10 ng/ml of IL-7 (R&D System) in 0.5 ml of AIM-V/2% AS medium. Three days later, these cultures were supplemented with IL-2 (CHIRON) to a final concentration of 20 IU/ml. On day 7 and 14, the T cells were further stimulated with the autologous peptide-pulsed DCs. The DCs were prepared each time by the same way described above. CTL was tested against peptide-pulsed T2 cells after the 3rd round of peptide stimulation on day 21 (Tanaka H et al., Br J Cancer 2001, 84(1): 94-9; Umano Y et al., Br J Cancer 2001, 84(8): 1052-7; Uchida N et al., Clin Cancer Res 2004, 10(24): 8577-86; Suda T et al., Cancer Sci 2006, 97(5): 411-9; Watanabe T et al., Cancer Sci 2005, 96(8): 498-506).
(§1) Specifically, peptide-pulsed T2 (1×10^4/well) was prepared as stimulator cells. Cultured cells in 48 wells were used as responder cells. IFN-gamma ELISPOT assay and IFN-gamma ELISA assay were performed under manufacture procedure.
CTLs for those peptides derived from TTLL4 were generated according to the protocols as described in “Materials and Methods”.

[2] = test system: peptide-pulsed T2 cells; experiment: IFN-gamma ELISA assay of CTL clones (HLA-A*0201); type: cell-based, human; settings: CTL clones by limiting dilution, target cells pulsed with peptide vs control
Method: The dilutions were made to have 0.3, 1, and 3 CTLs/well in 96 round-bottomed micro titer plate (Nalge Nunc International). CTLs were cultured with 1×10^4 cells/well of 2 kinds of human B-lymphoblastoid cell lines, 30 ng/ml of anti-CD3 antibody, and 125 U/ml of IL-2 in a total of 150 micro-l/well of AIM-V Medium containing 5% AS. 50 micro-l/well of IL-2 were added to the medium 10 days later so to reach a final concentration of 125 U/ml IL-2. CTL activity was tested on the 14th day, and CTL clones were expanded using the same method as described above (Uchida N et al., Clin Cancer Res 2004, 10(24): 8577-86; Suda T et al., Cancer Sci 2006, 97(5): 411-9; Watanabe T et al., Cancer Sci 2005, 96(8): 498-506).
as §1
(§2) CTL activity of these CTL lines was determined by IFN-gamma ELISA assay (FIG. 6a-d). […] Furthermore, the CTL clones were established by limiting dilution from the CTL lines as described in “Materials and Methods”, and IFN-gamma production from the CTL clones against target cells pulsed peptide was determined by IFN-gamma ELISA assay.

[3] = test system: peptide-pulsed T2 cells; experiment: IFN-gamma ELISA assay of CTL lines (HLA-A*0201); type: cell-based, human; settings: CTL lines stimulated with peptide, target cells pulsed with peptide vs without peptide pulse
Method: CTLs were expanded in culture using the method similar to the one described by Riddell et al. (Walter E A et al., N Engl J Med 1995, 333(16): 1038-44; Riddell S R et al., Nat Med 1996, 2(2): 216-23). A total of 5×10^4 CTLs were suspended in 25 ml of AIM-V/5% AS medium with 2 kinds of human B-lymphoblastoid cell lines, inactivated by Mitomycin C, in the presence of 40 ng/ml of anti-CD3 monoclonal antibody (Pharmingen). One day after initiating the cultures, 120 IU/ml of IL-2 were added to the cultures. The cultures were fed with fresh AIM-V/5% AS medium containing 30 IU/ml of IL-2 on days 5, 8 and 11 (Tanaka H et al., Br J Cancer 2001, 84(1): 94-9; Umano Y et al., Br J Cancer 2001, 84(8): 1052-7; Uchida N et al., Clin Cancer Res 2004, 10(24): 8577-86; Suda T et al., Cancer Sci 2006, 97(5): 411-9; Watanabe T et al., Cancer Sci 2005, 96(8): 498-506).
as §1, §2

[4] = test system: COS7 cells transfected with TTLL4 and HLA-A*0201; experiment: Specific CTL activity against target cells expressing TTLL4 and HLA-A*0201; type: cell-based, African green monkey; settings: for Specific CTL activity against COS7 cells transfected with both TTLL4 and HLA-A*0201: CTL clone (9-805) or CTL line (9-66) established with peptide; for Specific CTL activity against control COS7 cells expressing either HLA-A*0201 or TTLL4: controls: COS7 transfected with only full length TTLL4 or only HLA-A*0201
Text: The cDNA encoding an open reading frame of target genes or HLA-A*0201 was amplified by PCR. The PCR-amplified product was cloned into a vector. The plasmids were transfected into COST, which is the target genes and HLA-A*0201-null cell line, using lipofectamine 2000 (Invitrogen) according to the manufacturer's recommended procedures. After 2 days from transfection, the transfected cells were harvested with versene (Invitrogen) and used as the target cells (5×10^4 cells/well) for CTL activity assay.
The established CTL lines and clones raised against each peptide were examined for the ability to recognize target cells that express TTLL4 and HLA-A*0201 molecule. […] COS7 cells transfected with either full length of TTLL4 or HLA-A*0201 were prepared as the controls.

FMWPNSTPV [SEQ ID NO: 38]
Peptide specific CTL activity (IFN-gamma production, ELISPOT) ([1]; listed as TTLL4-A02-9-222): potent IFN-gamma production; also recorded: significant and specific CTL activity
IFN-gamma production of CTL clones (ELISA) ([2]; listed as TTLL4-A02-9-222): Potent IFN-gamma productions
IFN-gamma production of CTL lines (ELISA) [3]: potent IFN-gamma production

FMHLTNYSV [SEQ ID NO: 39]
Peptide specific CTL activity (IFN-gamma production, ELISPOT) ([1]; listed as TTLL4-A02-9-805): potent IFN-gamma production; also recorded: significant and specific CTL activity
IFN-gamma production of CTL clones (ELISA) ([2]; listed as TTLL4-A02-9-805): Potent IFN-gamma productions
IFN-gamma production of CTL lines (ELISA) [3]: potent IFN-gamma production
Specific CTL activity against COS7 cells transfected with both TTLL4 and HLA-A*0201 ([4]; listed as TTLL4-A02-9-805): specific CTL activity; also recorded: potent CTL activity
Specific CTL activity against control COS7 cells expressing either HLA-A*0201 or TTLL4 [4]: no significant specific CTL activity was detected

ALIYSLFPNV [SEQ ID NO: 59]
Peptide specific CTL activity (IFN-gamma production, ELISPOT) ([1]; listed as TTLL4-A02-10-574): potent IFN-gamma production; also recorded: significant and specific CTL activity
IFN-gamma production of CTL clones (ELISA) ([2]; listed as TTLL4-A02-10-574): Potent IFN-gamma productions
IFN-gamma production of CTL lines (ELISA) [3]: potent IFN-gamma production

GLGPGLLGV [SEQ ID NO: 44]
Peptide specific CTL activity (IFN-gamma production, ELISPOT) ([1]; listed as TTLL4-A02-9-66): potent IFN-gamma production; also recorded: significant and specific CTL activity
IFN-gamma production of CTL lines (ELISA) [3]: potent IFN-gamma production
Specific CTL activity against COS7 cells transfected with both TTLL4 and HLA-A*0201 ([4]; listed as TTLL4-A02-9-66): specific CTL activity; also recorded: potent CTL activity
Specific CTL activity against control COS7 cells expressing either HLA-A*0201 or TTLL4 [4]: no significant specific CTL activity was detected
